Marks after values point to notes of the source that are not given here.
Key:
[1] = In vitro release study, dialysis method; assay type: physicochemical; conditions: PBS pH 6.8, 37°C, first eight hours
Experimental: The THQ release profile from […] […] Briefly, 3 mL of the […] suspension was placed in a dialysis bag (M.W. 12 kDa, Sigma-Aldrich). Each sealed dialysis bag was immersed in 50 mL of PBS (pH 6.8) in a shaking incubator at 37 ± 0.5°C and 100 rpm. Samples were withdrawn from the release medium at specified intervals and replaced with fresh buffer to maintain sink conditions. […] As a control, the release of free THQ and free NTZ was measured under the same conditions. All measurements were performed in triplicate.

Cryptosporidium parvum [2] = experiment: Oocyst shedding in immunosuppressed infected mice; assay type: in vivo, Swiss albino mice
Experimental: Animals: The study was conducted following approval by the Research Ethics Committee of Zagazig University, Institutional Animal Care and Use Committee (ZU-IACUC), under protocol number ZU-IACUC/2/F/53/2024, following the National Institutes of Health guidelines for animal experimentation. Seventy male laboratory-bred Swiss albino mice free of parasites were included in this study. The mice weighed 20-25 grams at the start of the trial and were between four and six weeks old. They were purchased from the Biological Supply Center of the Theodor Bilharz Research Institute (TBRI). Throughout the trial, the mice were housed in an air-conditioned animal facility maintained at 20-22°C and were provided with a standard commercial pelleted diet and free access to water. […] Immunosuppression: The mice were subjected to immunosuppression by administering dexamethasone (Dexazone, […] Pharmaceuticals, Cairo, Egypt) orally through an esophageal tube at a rate of 0.25 μg/g/day for 14 consecutive days before being inoculated with C. parvum oocysts. Throughout the experiment, the mice received the same dosage of dexamethasone. The infection: In a previous study, we isolated Cryptosporidium oocysts from diarrheal calves and genetically identified them as C. parvum. The 2.5% potassium dichromate solution containing purified oocysts was stored at 4°C until needed. After preparing an infectious inoculum and counting the number of oocysts in the concentrated stock inoculum, the fluid volume of the inoculum per mouse was determined. Oral-gastric gavage was used to infect each mouse orally with C. parvum oocysts. Approximately 3 × 10^3 oocysts/mouse were used to infect each mouse at 0 days post-infection (dpi). […] Thymoquinone loaded on chitosan nanoparticles was given at the same dose for Group VII. Chitosan was administered at 200 mg/kg three times a week, starting at seven dpi for 2 weeks for Group III [36]. Assessments of the drug therapy: Parasitological examination: The mice feces were collected at 7, 14, and 21 dpi. For the oocyst shedding assessment, the number of Cryptosporidium oocysts in the fecal pellets was counted after staining with Kinyoun's acid-fast stain. Fecal samples were collected from each infected mouse. The mean number of oocysts was calculated for each mouse group. After weighing, a milligram of the fecal pellet was placed in 1 milliliter of 10% formalin. Centrifugation concentrated the fecal solution for ten minutes at 7000 rpm. The number of oocysts in one milliliter of the feces sample was calculated using 100 μl of fecal material dried, stained, and observed through an oil immersion lens (x100). The oocyst count was detected and expressed per gram of feces. The effectiveness of each drug was assessed according to [35] and represented as a percentage of reduction using the following formula: Efficacy(%)=100×((infected model group oocyst count-treated model group oocyst count)/(infected model group oocyst count)) %Inhibition = [(mean oocyst count in the infected untreated group - mean oocyst count in the infected treated group)/mean oocyst count in the infected untreated group] × 100

Cryptosporidium parvum [3] = experiment: Histopathological examination and scores of the intestine (H&E); assay type: in vivo, Swiss albino mice; conditions: 21 dpi
Experimental: At 21 dpi, the mice were humanely euthanized under light anesthesia induced by isoflurane inhalation (Forane®, Baxter, UK). Representative tissue specimens from all animals’ intestines, livers, and spleens were carefully collected and fixed in a 10% neutral buffered formalin solution for 48 hours. Following fixation, the tissues were dehydrated through a graded series of ethyl alcohol concentrations, cleared in xylene, and subsequently embedded in paraffin wax. Two sections, each 5 µm thick, were obtained from each tissue specimen. The sections were then deparaffinized in xylene and rehydrated through a descending series of alcohol concentrations. After rehydration, the tissue sections were mounted onto histological slides and stained with hematoxylin and eosin (H&E) for microscopic examination. The prepared slides were thoroughly analyzed under a light microscope to identify pathological alterations and evaluate the administered drug’s potential ameliorative effects. This standardized protocol ensured accurate and consistent histological assessment across all samples [39]. Histopathological scores for intestine: H&E-stained tissue sections of the intestine were evaluated in a blinded manner by assessing specific histological parameters, including mononuclear cell infiltration in the lamina propria, crypt hyperplasia, depletion or hyperplasia of goblet cells, and alterations in mucosal histoarchitecture. A systematic scoring approach was employed to quantify these histological changes. Histological alterations were counted in 50 randomly selected microscopic fields (captured images; 40 × objective) from each mouse within each experimental group. This method ensured a comprehensive and unbiased assessment of intestinal pathology across all samples [40].

Cryptosporidium parvum [4] = experiment: Histopathological examination of the liver (H&E); assay type: in vivo, Swiss albino mice; conditions: 21 dpi, in words
Experimental: (§1) At 21 dpi, the mice were humanely euthanized under light anesthesia induced by isoflurane inhalation (Forane®, Baxter, UK). Representative tissue specimens from all animals’ intestines, livers, and spleens were carefully collected and fixed in a 10% neutral buffered formalin solution for 48 hours. Following fixation, the tissues were dehydrated through a graded series of ethyl alcohol concentrations, cleared in xylene, and subsequently embedded in paraffin wax. Two sections, each 5 µm thick, were obtained from each tissue specimen. The sections were then deparaffinized in xylene and rehydrated through a descending series of alcohol concentrations. After rehydration, the tissue sections were mounted onto histological slides and stained with hematoxylin and eosin (H&E) for microscopic examination. The prepared slides were thoroughly analyzed under a light microscope to identify pathological alterations and evaluate the administered drug’s potential ameliorative effects. This standardized protocol ensured accurate and consistent histological assessment across all samples [39].

Cryptosporidium parvum [5] = experiment: Histopathological examination of the spleen (H&E); assay type: in vivo, Swiss albino mice; conditions: 21 dpi, in words
Experimental: as §1

cyclin D1 = experiment: Immunohistochemical staining of cyclin D1 in the intestine; assay type: in vivo, Swiss albino mice; conditions: 21 dpi, in words
Experimental: Immunohistochemical examination for detecting intestinal dysplasia using cyclin D1 marker: Three to five-micrometer intestinal tissue sections were deparaffinized using xylene and rehydrated using varying degrees of alcohol. Next, peroxidase activity was blocked using 3% hydrogen peroxide. The Dako target retrieval solution (pH 6.0) was applied for twenty minutes. The sections were treated for one hour with the primary antibody (Anti-Cyclin D1 antibody [SP4], ab 16663, Abcam, UK, diluted 1/100 in PBS). Antibody binding was identified using Dako’s HRP Envision Kit (Dako Cytomation, Denmark).

IFN-γ = experiment: Serum IFN-γ by ELISA; assay type: in vivo, Swiss albino mice
Experimental: (§2) Immunological measurements: Interleukin-10 (IL-10) and interferon-gamma (IFN-γ) levels in mouse sera were measured. Blood samples were collected in plain tubes from the mice’s retroorbital veins at the indicated time points (14 dpi and 21 dpi). After 30 minutes at room temperature and 15 minutes of centrifugation at 3000 rpm, sera were collected and stored at −20°C. Using an ELISA kit and following the manufacturer’s instructions, the enzyme-linked immunosorbent assay (ELISA) was employed to measure the levels of IFN-γ and IL-10 in the serum (Bioneovan Co.; Ltd, Beijing, China).

IL-10 = experiment: Serum IL-10 by ELISA; assay type: in vivo, Swiss albino mice
Experimental: as §2

[6] = Pharmacokinetic study after oral administration; assay type: in vivo, Wistar albino rats; conditions: rats, oral 20 mg/kg
Experimental: All groups received an oral dose of 20 mg/kg of their respective formulations. Blood samples (500 μL) were collected from the ocular vein into heparinized tubes at intervals of 0.5, 1, 2, 4, 6, 8, 12, and 24 hours post-administration. The samples were centrifuged at 10,000 rpm for 5 min to isolate plasma stored at −20°C. Plasma samples were deproteinized by adding 1 mL of acetonitrile to each sample, followed by vortexing for 10 min and centrifugation at 6,000 rpm for another 10 min. […] Pharmacokinetic parameters such as peak plasma concentration (Cmax), time to reach peak concentration (Tmax), mean residence time (MRT), area under the curve (AUC), elimination rate constant (Kel), and plasma half-life (t1/2) were calculated using PK Solver 2.0 software through non-compartmental analysis.

[7] = Wistar albino, rat, plasma, n = 6

## CC(=O)Oc1ccccc1C(=O)Nc1ncc([N+](=O)[O-])s1 [NTZ, nitazoxanide, reference compound]
[1]
  drug release: 100%
Cryptosporidium parvum [2]; 7th day PI (start of treatment), immunosuppressed mice, oral
  Count of Cryptosporidium oocysts per gram stool, Mean ± SE: 307.3 ± 3 ^Aa x10^3 per gram stool
Cryptosporidium parvum [2]; 14th day PI, versus infected untreated group
  I % (percent inhibition of oocyst count): 53%
Cryptosporidium parvum [2]; 14th day PI, NTZ forms 100 mg/kg/day 5 days, THQ forms and CsNPs 200 mg/kg three times a week, oral from 7 dpi
  Count of Cryptosporidium oocysts per gram stool, Mean ± SE: 146.8 ± 2.9 ^Bc x10^3 per gram stool
Cryptosporidium parvum [2]; 21th day PI, versus infected untreated group
  I% (percent inhibition of oocyst count, effectiveness): 54%
Cryptosporidium parvum [2]; 21th day PI, NTZ forms 100 mg/kg/day 5 days, THQ forms and CsNPs 200 mg/kg three times a week, oral from 7 dpi
  Count of Cryptosporidium oocysts per gram stool, Mean ± SE: 145.5 ± 2.6 ^Bc x10^3 per gram stool
Cryptosporidium parvum [3]; H&E, in words
  Intestinal histopathological findings: persistent villous atrophy and mild improvement in histopathological alterations
Cryptosporidium parvum [3]; intestine
  Morphometric indices: Villus width: 91.2^A
Cryptosporidium parvum [3]; intestine, mean ± SE
  Lesion frequency: Epithelial necrosis: 9 ± 0.58^B
  Lesion frequency: Goblet cell hyperplasia: 21.5 ± 0.76^B
  Lesion frequency: Mucosal erosion: 16 ± 0.58^B
  Lesion frequency: Mucosal ulceration: 9.83 ± 0.6^B
  Lesion frequency: Mucosal-associated lymphocyte hyperplasia: 21 ± 0.58^C
  Lesion frequency: Vascular congestion: 21 ± 0.97^B
  Lesion frequency: Villus atrophy: 10 ± 0.58^B
  Lesion frequency: Villus fusion: 5.17 ± 0.31^B
  Morphometric indices: Thickness of lamina propria: 174.33 ± 1.05^B
  Morphometric indices: Thickness of muscular layer per image: 65.87 ± 0.59^BC
  Morphometric indices: Villus height: 298.67 ± 2.4^C
  Morphometric indices: Villus surface area: 27609.37 ± 307.03^C
Cryptosporidium parvum [4]
  Liver histopathological findings: partial improvement
Cryptosporidium parvum [5]
  Spleen histopathological findings: partial improvement with mild hyperplasia of lymphoid elements
Cyclin D1
  cyclin D1 immunostaining of the intestine: Moderate immunostaining
IFN-γ; 14 days post-infection
  IFN-γ serum level, Mean ± SE: 37.1 ± 1.2 ^b
IFN-γ; 21 days post-infection
  IFN-γ serum level, Mean ± SE: 28.1 ± 1.3 ^b
IL-10; 14 days post-infection
  IL-10 serum level, Mean ± SE: 16.9 ± 0.6 cd
IL-10; 21 days post-infection
  IL-10 serum level, Mean ± SE: 30.9 ± 0.3 ^c
[6]; Wistar albino, rat, plasma, 0.5 hours
  concentration at 0.5 h: 24900 ± 9110 ng/mL
[6]; Wistar albino, rat, plasma, 12 hours
  concentration at 12 h: 4160 ± 2710 ng/mL
[6]; Wistar albino, rat, plasma, 24 hours
  concentration at 24 h: 1390 ± 890 ng/mL
[6]; [7]
  AUC: 1440 ± 49.4 µg·h/mL
  AUC(0-inf): 1470 ± 52.3 µg·h/mL
  Cmax: 53200 ± 4950 ng/mL
  Tmax: 2 h
[6]; Wistar albino, rat, plasma, n = 6, read-out: AUC₀ → 24
  AUC(0-t): 1440 ± 48.7 µg·h/mL
[6]; Wistar albino, rat, plasma, n = 6, read-out: T1/₂ (converted)
  half-life: 6.55 ± 0.54 h
[6]; n = 6
  Kel: 0.105 ± 0.0087 h˦ ¹

From PMC12124858, “Thymoquinone loaded on chitosan nanoparticles alleviated the consequences of cryptosporidiosis infection in a murine model: Evidence from parasitological, histopathological, immunohistochemical, and immunological studies” (PLOS One, 2025)
